IC50 data for 5 compounds are collected here from BindingDB's records for doi:10.1016/j.bioorg.2014.07.011 (Shenyang Pharmaceutical University, 2014).

Usually IC50 stands for the midpoint of a concentration-inhibition curve. A lower IC50 goes with higher potency.

What all share (experiment): HTRF kinase assay
Holding throughout (details): pH 7; 25 °C
On the technique in general: In TR-FRET formats the signal depends on donor and acceptor labels being close together.

Experiment [1] has as its target Hepatocyte growth factor receptor (Homo sapiens, UniProt P08581). Here is the method: The c-Met kinase activity was evaluated by homogeneous time-resolved fluorescence (HTRF) assays. In a 384-well plate, 20 µg/mL (Glue, Tyr) 4:1 was added, followed by the addition of 50 µL of 10 mM ATP solution diluted in kinase reaction buffer (50 mM HEPES, pH 7.0, […], and 0.1% NaN3) into each well. Various concentrations of compounds diluted in 10 µL of 1% DMSO (v/v) […]. The reaction was initiated by the addition of purified c-Met kinase diluated in 39 µL of kinase reaction buffer solution. The reaction was incubated for 30 min at 25 °C and stopped by the addition of 5 µL of Streptavidin-XL665 and 5 µL Tk Antibody Cryptate working solution to all of the wells.

Experiment [2] addresses T1, Mast/stem cell growth factor receptor Kit [1-973] (Homo sapiens, UniProt P10721).
T1 construct: 1-973

In experiment [3] the target is T2, Epidermal growth factor receptor [1-973] (Homo sapiens, UniProt P00533).
T2 construct: 1-973

Experiment [4] deals with Macrophage-stimulating protein receptor (Homo sapiens, UniProt Q04912).
Experiment [5] deals with Vascular endothelial growth factor receptor 1 (Homo sapiens, UniProt P17948).
The target of experiment [6] is Vascular endothelial growth factor receptor 2 (Homo sapiens, UniProt P35968).
Chain of Vascular endothelial growth factor receptor 2 (P35968 whole entry): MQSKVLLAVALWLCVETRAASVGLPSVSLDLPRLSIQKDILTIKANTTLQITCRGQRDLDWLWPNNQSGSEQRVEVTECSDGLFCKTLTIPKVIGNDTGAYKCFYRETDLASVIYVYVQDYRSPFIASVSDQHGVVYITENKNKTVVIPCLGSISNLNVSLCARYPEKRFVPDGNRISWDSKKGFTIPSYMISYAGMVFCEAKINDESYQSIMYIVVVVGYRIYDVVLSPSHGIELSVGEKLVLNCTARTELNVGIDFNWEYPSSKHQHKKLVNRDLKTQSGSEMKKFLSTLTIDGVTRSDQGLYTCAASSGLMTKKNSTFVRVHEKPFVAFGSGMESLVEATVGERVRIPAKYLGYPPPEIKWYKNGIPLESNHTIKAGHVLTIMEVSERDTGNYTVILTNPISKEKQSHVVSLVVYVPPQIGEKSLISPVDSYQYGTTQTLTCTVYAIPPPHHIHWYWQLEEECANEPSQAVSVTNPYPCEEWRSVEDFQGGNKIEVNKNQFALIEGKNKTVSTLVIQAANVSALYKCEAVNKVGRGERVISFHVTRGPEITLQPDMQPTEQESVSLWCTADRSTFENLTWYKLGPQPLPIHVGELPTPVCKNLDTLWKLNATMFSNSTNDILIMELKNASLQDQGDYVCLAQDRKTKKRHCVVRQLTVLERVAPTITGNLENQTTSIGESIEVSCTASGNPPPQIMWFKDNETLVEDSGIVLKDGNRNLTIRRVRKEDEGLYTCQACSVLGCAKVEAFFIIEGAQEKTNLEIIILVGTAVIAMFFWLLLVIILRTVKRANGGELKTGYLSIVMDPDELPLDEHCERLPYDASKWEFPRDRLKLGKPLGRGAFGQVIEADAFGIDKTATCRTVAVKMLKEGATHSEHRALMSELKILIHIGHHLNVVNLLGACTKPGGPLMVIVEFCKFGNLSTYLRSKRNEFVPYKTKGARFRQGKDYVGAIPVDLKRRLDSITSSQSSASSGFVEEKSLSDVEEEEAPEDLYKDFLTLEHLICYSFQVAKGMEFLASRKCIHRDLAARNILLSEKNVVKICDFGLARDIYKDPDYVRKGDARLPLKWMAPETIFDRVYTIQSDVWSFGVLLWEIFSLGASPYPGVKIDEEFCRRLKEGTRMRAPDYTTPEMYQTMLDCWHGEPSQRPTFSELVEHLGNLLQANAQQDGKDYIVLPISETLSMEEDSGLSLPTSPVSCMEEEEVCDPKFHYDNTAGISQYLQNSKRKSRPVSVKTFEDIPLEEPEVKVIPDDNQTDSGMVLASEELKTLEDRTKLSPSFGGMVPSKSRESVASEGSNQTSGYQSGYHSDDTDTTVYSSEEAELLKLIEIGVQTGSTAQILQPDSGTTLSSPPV
Experiment [7] deals with T3, Receptor-type tyrosine-protein kinase FLT3 (Homo sapiens, UniProt P36888).
T3 sequence (P36888 whole entry): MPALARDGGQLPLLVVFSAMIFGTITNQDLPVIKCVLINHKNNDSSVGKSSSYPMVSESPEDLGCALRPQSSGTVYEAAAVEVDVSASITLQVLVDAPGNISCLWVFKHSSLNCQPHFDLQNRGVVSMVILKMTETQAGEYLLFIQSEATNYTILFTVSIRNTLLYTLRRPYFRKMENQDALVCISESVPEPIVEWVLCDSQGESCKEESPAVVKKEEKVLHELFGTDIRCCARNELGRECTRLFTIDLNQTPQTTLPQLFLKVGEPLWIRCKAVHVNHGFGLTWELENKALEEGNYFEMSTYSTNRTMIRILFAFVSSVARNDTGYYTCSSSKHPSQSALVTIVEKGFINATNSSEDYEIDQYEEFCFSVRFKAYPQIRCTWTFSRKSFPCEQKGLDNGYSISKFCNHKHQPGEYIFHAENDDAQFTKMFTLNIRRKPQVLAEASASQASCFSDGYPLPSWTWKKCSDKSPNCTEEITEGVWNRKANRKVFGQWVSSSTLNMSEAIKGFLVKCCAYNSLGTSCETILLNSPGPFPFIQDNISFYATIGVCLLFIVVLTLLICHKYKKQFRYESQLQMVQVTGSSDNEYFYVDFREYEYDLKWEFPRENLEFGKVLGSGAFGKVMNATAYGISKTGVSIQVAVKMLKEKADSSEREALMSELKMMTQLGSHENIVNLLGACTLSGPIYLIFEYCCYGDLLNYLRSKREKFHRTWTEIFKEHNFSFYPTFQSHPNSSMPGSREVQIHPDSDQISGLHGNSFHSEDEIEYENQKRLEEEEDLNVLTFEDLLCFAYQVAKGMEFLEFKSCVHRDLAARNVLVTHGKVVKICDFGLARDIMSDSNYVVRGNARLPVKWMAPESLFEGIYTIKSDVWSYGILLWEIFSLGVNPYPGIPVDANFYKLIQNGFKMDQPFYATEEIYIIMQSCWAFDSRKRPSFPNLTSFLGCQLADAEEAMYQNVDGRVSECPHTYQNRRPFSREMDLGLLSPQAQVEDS

For experiment [8], the target named is T4, Platelet-derived growth factor receptor alpha [1-973] (Homo sapiens, UniProt P16234).
T4 construct: 1-973
T4 sequence (P16234 1-973): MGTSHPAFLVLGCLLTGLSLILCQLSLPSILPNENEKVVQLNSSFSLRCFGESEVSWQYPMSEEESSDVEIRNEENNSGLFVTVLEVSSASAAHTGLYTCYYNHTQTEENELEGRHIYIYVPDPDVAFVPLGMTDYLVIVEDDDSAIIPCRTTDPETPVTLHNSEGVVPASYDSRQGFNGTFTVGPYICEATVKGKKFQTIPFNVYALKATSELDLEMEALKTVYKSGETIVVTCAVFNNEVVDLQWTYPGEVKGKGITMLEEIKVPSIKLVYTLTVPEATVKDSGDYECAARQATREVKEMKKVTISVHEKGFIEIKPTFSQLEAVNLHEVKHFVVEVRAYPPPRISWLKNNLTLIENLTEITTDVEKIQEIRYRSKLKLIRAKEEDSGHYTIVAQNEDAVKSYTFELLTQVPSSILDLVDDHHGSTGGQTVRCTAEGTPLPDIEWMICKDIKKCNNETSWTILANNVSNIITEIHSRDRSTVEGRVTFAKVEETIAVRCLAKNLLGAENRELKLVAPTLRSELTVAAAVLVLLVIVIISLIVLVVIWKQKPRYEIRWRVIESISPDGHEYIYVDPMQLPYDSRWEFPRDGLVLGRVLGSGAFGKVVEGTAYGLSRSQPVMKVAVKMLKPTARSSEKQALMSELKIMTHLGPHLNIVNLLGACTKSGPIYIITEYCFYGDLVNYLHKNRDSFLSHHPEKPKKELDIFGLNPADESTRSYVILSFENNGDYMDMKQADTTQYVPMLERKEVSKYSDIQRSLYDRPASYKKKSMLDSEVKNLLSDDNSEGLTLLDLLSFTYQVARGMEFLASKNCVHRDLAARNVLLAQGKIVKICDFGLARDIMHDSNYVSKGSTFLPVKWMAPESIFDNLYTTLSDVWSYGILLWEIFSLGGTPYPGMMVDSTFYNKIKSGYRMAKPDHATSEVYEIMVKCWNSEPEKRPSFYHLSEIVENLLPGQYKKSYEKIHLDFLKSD

Chain of Hepatocyte growth factor receptor (P08581 whole entry): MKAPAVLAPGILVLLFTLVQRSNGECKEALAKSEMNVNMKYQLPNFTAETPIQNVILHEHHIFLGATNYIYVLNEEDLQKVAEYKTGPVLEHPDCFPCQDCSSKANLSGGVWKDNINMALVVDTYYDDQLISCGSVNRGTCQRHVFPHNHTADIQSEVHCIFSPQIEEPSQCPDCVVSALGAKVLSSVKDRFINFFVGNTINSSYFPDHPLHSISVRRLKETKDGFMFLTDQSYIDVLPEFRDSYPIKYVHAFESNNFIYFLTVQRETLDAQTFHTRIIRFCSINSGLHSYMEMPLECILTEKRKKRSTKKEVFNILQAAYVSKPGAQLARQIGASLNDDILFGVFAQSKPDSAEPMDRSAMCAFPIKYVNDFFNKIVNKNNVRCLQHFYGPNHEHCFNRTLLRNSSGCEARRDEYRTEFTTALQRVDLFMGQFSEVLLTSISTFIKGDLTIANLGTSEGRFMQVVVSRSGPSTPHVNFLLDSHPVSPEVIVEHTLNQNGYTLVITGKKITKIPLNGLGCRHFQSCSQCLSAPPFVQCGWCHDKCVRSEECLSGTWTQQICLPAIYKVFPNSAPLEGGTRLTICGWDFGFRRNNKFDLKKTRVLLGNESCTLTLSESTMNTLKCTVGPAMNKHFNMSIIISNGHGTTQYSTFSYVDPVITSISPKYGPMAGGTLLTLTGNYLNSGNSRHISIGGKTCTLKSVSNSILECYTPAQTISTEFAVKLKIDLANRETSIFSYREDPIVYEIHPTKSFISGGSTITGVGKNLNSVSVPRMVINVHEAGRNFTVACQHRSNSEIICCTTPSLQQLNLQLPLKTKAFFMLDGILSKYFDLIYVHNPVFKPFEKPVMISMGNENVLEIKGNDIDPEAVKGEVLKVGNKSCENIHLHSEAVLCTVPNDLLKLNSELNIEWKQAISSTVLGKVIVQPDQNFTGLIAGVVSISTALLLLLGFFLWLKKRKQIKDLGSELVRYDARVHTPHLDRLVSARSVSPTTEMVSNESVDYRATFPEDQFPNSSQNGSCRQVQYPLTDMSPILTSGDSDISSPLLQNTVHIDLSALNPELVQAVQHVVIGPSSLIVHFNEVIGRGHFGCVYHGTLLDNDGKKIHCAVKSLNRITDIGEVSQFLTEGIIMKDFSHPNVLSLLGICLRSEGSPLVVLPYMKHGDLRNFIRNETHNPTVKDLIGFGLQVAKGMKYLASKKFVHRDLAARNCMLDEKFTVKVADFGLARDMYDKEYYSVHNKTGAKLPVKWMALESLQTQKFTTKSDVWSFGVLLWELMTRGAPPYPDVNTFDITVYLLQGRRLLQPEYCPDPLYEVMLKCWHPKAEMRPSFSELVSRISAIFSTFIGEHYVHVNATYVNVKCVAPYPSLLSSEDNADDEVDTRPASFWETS
T1 sequence (P10721 1-973): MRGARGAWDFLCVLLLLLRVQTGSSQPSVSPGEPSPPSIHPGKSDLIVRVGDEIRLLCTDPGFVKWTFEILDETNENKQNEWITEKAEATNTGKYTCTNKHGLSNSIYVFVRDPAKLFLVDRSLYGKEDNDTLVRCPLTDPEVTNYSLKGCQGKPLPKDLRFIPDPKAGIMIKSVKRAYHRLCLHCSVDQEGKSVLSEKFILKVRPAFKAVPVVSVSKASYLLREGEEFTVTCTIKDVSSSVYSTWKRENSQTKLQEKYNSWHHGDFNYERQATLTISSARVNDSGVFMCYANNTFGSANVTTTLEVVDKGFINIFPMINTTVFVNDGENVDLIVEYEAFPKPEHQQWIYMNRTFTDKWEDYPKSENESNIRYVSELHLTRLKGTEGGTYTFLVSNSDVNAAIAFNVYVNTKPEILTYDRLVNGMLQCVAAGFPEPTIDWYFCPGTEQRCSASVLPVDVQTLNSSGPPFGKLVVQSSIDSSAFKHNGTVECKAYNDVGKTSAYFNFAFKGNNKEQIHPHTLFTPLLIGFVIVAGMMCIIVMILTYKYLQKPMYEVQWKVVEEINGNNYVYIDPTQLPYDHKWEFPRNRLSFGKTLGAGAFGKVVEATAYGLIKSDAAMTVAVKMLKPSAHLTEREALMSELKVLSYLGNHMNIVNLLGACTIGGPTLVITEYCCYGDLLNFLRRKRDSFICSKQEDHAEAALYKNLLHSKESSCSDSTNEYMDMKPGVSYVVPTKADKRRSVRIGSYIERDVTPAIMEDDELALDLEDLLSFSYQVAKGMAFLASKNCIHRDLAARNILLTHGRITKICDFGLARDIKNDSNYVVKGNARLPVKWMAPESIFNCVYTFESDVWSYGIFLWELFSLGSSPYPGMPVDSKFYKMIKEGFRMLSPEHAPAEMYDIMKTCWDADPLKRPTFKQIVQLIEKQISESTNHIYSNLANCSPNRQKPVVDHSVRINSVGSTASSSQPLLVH

In experiment [1], `COc1cc2c(Oc3ccc(N=Cc4c(O)n(-c5ccccc5C(F)(F)F)c(=O)n4C)cc3F)ccnc2cc1OCCCN1CCCC1` [(E)-5-(((3-fluoro-4-((6-methoxy-7-(3-(pyrrolidin-1-yl)propoxy)quinolin-4-yl)oxy)phenyl)amino)methylene)-1-methyl-3-(2-(trifluoromethyl)phenyl)imidazolidine-2,4-dione (38)] showed a half-maximal inhibitory concentration (IC50) of 2.75 nM.

`COc1cc2c(Oc3ccc(N=Cc4c(O)n(-c5ccccc5F)c(=O)n4C)cc3F)ccnc2cc1OCCCN1CCOCC1` [(E)-5-(((3-fluoro-4-((6-methoxy-7-(3-morpholinopropoxy)quinolin-4-yl)oxy)phenyl)amino)methylene)-3-(2-fluorophenyl)-1-methylimidazolidine-2,4-dione (40)] yielded an IC50 in experiment [1] of 8.78 nM.

`COc1cc2c(Oc3ccc(N=Cc4c(C)[nH]n(-c5ccccc5C(F)(F)F)c4=O)cc3F)ccnc2cc1OCCCN1CCCCC1` [(Z)-4-(((3-fluoro-4-((6-methoxy-7-(3-(piperidin-1-yl)propoxy)quinolin-4-yl)oxy)phenyl)amino)methylene)-3-methyl-1-(2-(trifluoromethyl)phenyl)-1H-pyrazol-5(4H)-one (21)] returned an IC50 in experiment [1] of 6.63 nM.

Consider `COc1cc2c(Oc3ccc(N=Cc4c(C)[nH]n(-c5ccccc5C(F)(F)F)c4=O)cc3F)ccnc2cc1OCCCN1CCCC1` [(Z)-4-(((3-fluoro-4-((6-methoxy-7-(3-(pyrrolidin-1-yl)propoxy)quinolin-4-yl)oxy)phenyl)amino)methylene)-3-methyl-1-(2-(trifluoromethyl)phenyl)-1H-pyrazol-5(4H)-one (13)], for which the midpoint of inhibition in experiment [1], the IC50, lay at 5.04 nM.

For the compound `COc1cc2c(Oc3ccc(N=Cc4c(C)[nH]n(-c5ccccc5C(F)(F)F)c4=O)cc3F)ccnc2cc1OCCCN1CCOCC1` [(Z)-4-(((3-fluoro-4-((6-methoxy-7-(3-morpholinopropoxy)quinolin-4-yl)oxy)phenyl)amino)methylene)-3-methyl-1-(2-(trifluoromethyl)phenyl)-1H-pyrazol-5(4H)-one (17)], the IC50 was 2.2 nM in experiment [1]; 2.3 nM in experiment [2]; above 10 µM in experiment [3]; 4.24 nM in experiment [4]; 8.56 nM in experiment [5]; 326 nM in experiment [6]. The IC50 in experiment [7] is 8.38 nM; in experiment [8], 32.2 nM.
